Measured values from the supplement of paper PMC10307832.

Columns and labels:
Test in all cases: relative viability (nuclei count vs DMSO), 5 days (fraction); higher = more cells survive
NCI-H2085 = tested on: NCI-H2085
Outline: (§1)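 One day after seeding in 1536-well plates, lung cancer cell lines were dosed by pin tool. Dosing was either single-drug or a fixed anchor-drug dose plus five library-drug doses (not always all listed) in √10 steps. After 5 days, nuclei were stained in one fix-and-stain step and counted on 4× images, and relative viability is the nuclei count of treated wells over that of vehicle wells, given as the median of duplicate plates.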

NCI-H661 = tested on: NCI-H661
Outline: as §1

LXF-289 = tested on: LXF-289
Outline: as §1

NCI-H1437 = tested on: NCI-H1437
Outline: as §1

ChaGo-K-1 = tested on: ChaGo-K-1
Outline: as §1

NCI-H441 = tested on: NCI-H441
Outline: as §1

EPLC-272H = tested on: EPLC-272H
Outline: as §1

NCI-H1793 = tested on: NCI-H1793
Outline: as §1

NCI-H3122 = tested on: NCI-H3122
Outline: as §1

LCLC-97TM1 = tested on: LCLC-97TM1
Outline: as §1

NCI-H596 = tested on: NCI-H596
Outline: as §1

HARA = tested on: HARA
Outline: as §1

NCI-H1650 = tested on: NCI-H1650
Outline: as §1

H3255 = tested on: H3255
Outline: as §1

HCC-78 = tested on: HCC-78
Outline: as §1

NCI-H1666 = tested on: NCI-H1666
Outline: as §1

NCI-H2087 = tested on: NCI-H2087
Outline: as §1

HOP-62 = tested on: HOP-62
Outline: as §1

NCI-H1395 = tested on: NCI-H1395
Outline: as §1

COR-L23 = tested on: COR-L23
Outline: as §1

NCI-H1944 = tested on: NCI-H1944
Outline: as §1

PC-14 = tested on: PC-14
Outline: as §1

NCI-H2126 = tested on: NCI-H2126
Outline: as §1

Molecule CN1CCN(CCOc2cc(OC3CCOCC3)c3c(Nc4c(Cl)ccc5c4OCO5)ncnc3c2)CC1 [Saracatinib] + O=C(c1cc(Cc2n[nH]c(=O)c3ccccc23)ccc1F)N1CCN(C(=O)C2CC2)CC1 [Olaparib] (partner 8 µM) has a relative viability (NCI-H2085; first compound 0.02 µM) of 0.802, a relative viability (NCI-H2085; first compound 0.2 µM) of 0.602 and a relative viability (NCI-H2085; first compound 0.6325 µM) of 0.821. The relative viability (NCI-H2085; first compound 2 µM) was 0.863, the relative viability (NCI-H661; first compound 0.02 µM) was 0.748 and the relative viability (NCI-H661; first compound 0.2 µM) was 0.625. It also gave a relative viability (NCI-H661; first compound 0.6325 µM) of 0.671, a relative viability (NCI-H661; first compound 2 µM) of 0.59 and a relative viability (LXF-289; first compound 0.02 µM) of 1.07. For the same molecule, the relative viability (LXF-289; first compound 0.2 µM) was 0.916, the relative viability (LXF-289; first compound 0.6325 µM) was 1.09 and the relative viability (LXF-289; first compound 2 µM) was 1.04. It also gave a relative viability (NCI-H1437; first compound 0.02 µM) of 0.68, a relative viability (NCI-H1437; first compound 0.2 µM) of 0.648 and a relative viability (NCI-H1437; first compound 0.6325 µM) of 0.618. For the same molecule, the relative viability (NCI-H1437; first compound 2 µM) was 0.658, the relative viability (ChaGo-K-1; first compound 0.02 µM) was 0.423 and the relative viability (ChaGo-K-1; first compound 0.2 µM) was 0.28. For the same molecule, the relative viability (ChaGo-K-1; first compound 0.6325 µM) was 0.413, the relative viability (ChaGo-K-1; first compound 2 µM) was 0.449 and the relative viability (NCI-H441; first compound 0.02 µM) was 0.57. For the same molecule, the relative viability (NCI-H441; first compound 0.2 µM) was 0.536, the relative viability (NCI-H441; first compound 0.6325 µM) was 0.634 and the relative viability (NCI-H441; first compound 2 µM) was 0.532. It also gave a relative viability (EPLC-272H; first compound 0.02 µM) of 0.946, a relative viability (EPLC-272H; first compound 0.2 µM) of 0.714 and a relative viability (EPLC-272H; first compound 0.6325 µM) of 0.658. The relative viability (EPLC-272H; first compound 2 µM) was 0.426, the relative viability (NCI-H1793; first compound 0.02 µM) was 0.872 and the relative viability (NCI-H1793; first compound 0.2 µM) was 0.498. For the same molecule, the relative viability (NCI-H1793; first compound 0.6325 µM) was 0.777, the relative viability (NCI-H1793; first compound 2 µM) was 0.564 and the relative viability (NCI-H3122; first compound 0.02 µM) was 0.62. For the same molecule, the relative viability (NCI-H3122; first compound 0.2 µM) was 0.485, the relative viability (NCI-H3122; first compound 0.6325 µM) was 0.682 and the relative viability (NCI-H3122; first compound 2 µM) was 0.528. For the same molecule, the relative viability (LCLC-97TM1; first compound 0.02 µM) was 0.494, the relative viability (LCLC-97TM1; first compound 0.2 µM) was 0.291 and the relative viability (LCLC-97TM1; first compound 0.6325 µM) was 0.567. It also gave a relative viability (LCLC-97TM1; first compound 2 µM) of 0.32, a relative viability (NCI-H596; first compound 0.02 µM) of 0.727 and a relative viability (NCI-H596; first compound 0.2 µM) of 0.589. It also gave a relative viability (NCI-H596; first compound 0.6325 µM) of 0.684, a relative viability (NCI-H596; first compound 2 µM) of 0.546 and a relative viability (HARA; first compound 0.02 µM) of 0.891. It also gave a relative viability (HARA; first compound 0.2 µM) of 0.631, a relative viability (HARA; first compound 0.6325 µM) of 0.878 and a relative viability (HARA; first compound 2 µM) of 0.311. The relative viability (NCI-H1650; first compound 0.02 µM) was 0.784, the relative viability (NCI-H1650; first compound 0.2 µM) was 0.636 and the relative viability (NCI-H1650; first compound 0.6325 µM) was 0.624. The relative viability (NCI-H1650; first compound 2 µM) was 0.569, the relative viability (H3255; first compound 0.02 µM) was 0.623 and the relative viability (H3255; first compound 0.2 µM) was 0.496. For the same molecule, the relative viability (H3255; first compound 0.6325 µM) was 0.593, the relative viability (H3255; first compound 2 µM) was 0.301 and the relative viability (HCC-78; first compound 0.02 µM) was 0.891. The relative viability (HCC-78; first compound 0.6325 µM) was 0.99, the relative viability (HCC-78; first compound 2 µM) was 0.673 and the relative viability (NCI-H1666; first compound 0.02 µM) was 0.722. It also gave a relative viability (NCI-H1666; first compound 0.2 µM) of 0.696, a relative viability (NCI-H1666; first compound 0.6325 µM) of 0.974 and a relative viability (NCI-H1666; first compound 2 µM) of 0.995. For the same molecule, the relative viability (NCI-H2087; first compound 0.02 µM) was 0.485, the relative viability (NCI-H2087; first compound 0.2 µM) was 0.449 and the relative viability (NCI-H2087; first compound 0.6325 µM) was 0.552. For the same molecule, the relative viability (NCI-H2087; first compound 2 µM) was 0.515, the relative viability (HOP-62; first compound 0.02 µM) was 0.38 and the relative viability (HOP-62; first compound 0.2 µM) was 0.417. The relative viability (HOP-62; first compound 0.6325 µM) was 0.204, the relative viability (HOP-62; first compound 2 µM) was 0.39 and the relative viability (NCI-H1395; first compound 0.02 µM) was 0.497. It also gave a relative viability (NCI-H1395; first compound 0.2 µM) of 0.488, a relative viability (NCI-H1395; first compound 0.6325 µM) of 0.409 and a relative viability (NCI-H1395; first compound 2 µM) of 0.436. The relative viability (COR-L23; first compound 0.02 µM) was 0.447, the relative viability (COR-L23; first compound 0.2 µM) was 0.319 and the relative viability (COR-L23; first compound 0.6325 µM) was 0.346. It also gave a relative viability (COR-L23; first compound 2 µM) of 0.312, a relative viability (NCI-H1944; first compound 0.02 µM) of 0.406 and a relative viability (NCI-H1944; first compound 0.2 µM) of 0.344. The relative viability (NCI-H1944; first compound 0.6325 µM) was 0.44, the relative viability (NCI-H1944; first compound 2 µM) was 0.358 and the relative viability (PC-14; first compound 0.02 µM) was 0.263. The relative viability (PC-14; first compound 0.2 µM) was 0.261, the relative viability (PC-14; first compound 0.6325 µM) was 0.201 and the relative viability (PC-14; first compound 2 µM) was 0.117. The relative viability (NCI-H2126; first compound 0.02 µM) was 0.886, the relative viability (NCI-H2126; first compound 0.2 µM) was 0.924 and the relative viability (NCI-H2126; first compound 0.6325 µM) was 0.923. For the same molecule, the relative viability (NCI-H2126; first compound 2 µM) was 0.763.
